Test results published in US12404263B2, “ASK1 inhibiting agents” (BIOGEN MA INC., priority 2018, dated 2025).

Legend:
GST-hASK1 = target: T1, GST-hASK1 (Homo sapiens, UniProt Q99683); test: ASK1 TR-FRET assay; type: biochemical; details: 5 nM GST-hASK1, 100 μM ATP, 2 μM STK Substrate 3
T1 construct: GST (N); purchased Life Technologies PV4011
T1 sequence (Q99683 1-1374): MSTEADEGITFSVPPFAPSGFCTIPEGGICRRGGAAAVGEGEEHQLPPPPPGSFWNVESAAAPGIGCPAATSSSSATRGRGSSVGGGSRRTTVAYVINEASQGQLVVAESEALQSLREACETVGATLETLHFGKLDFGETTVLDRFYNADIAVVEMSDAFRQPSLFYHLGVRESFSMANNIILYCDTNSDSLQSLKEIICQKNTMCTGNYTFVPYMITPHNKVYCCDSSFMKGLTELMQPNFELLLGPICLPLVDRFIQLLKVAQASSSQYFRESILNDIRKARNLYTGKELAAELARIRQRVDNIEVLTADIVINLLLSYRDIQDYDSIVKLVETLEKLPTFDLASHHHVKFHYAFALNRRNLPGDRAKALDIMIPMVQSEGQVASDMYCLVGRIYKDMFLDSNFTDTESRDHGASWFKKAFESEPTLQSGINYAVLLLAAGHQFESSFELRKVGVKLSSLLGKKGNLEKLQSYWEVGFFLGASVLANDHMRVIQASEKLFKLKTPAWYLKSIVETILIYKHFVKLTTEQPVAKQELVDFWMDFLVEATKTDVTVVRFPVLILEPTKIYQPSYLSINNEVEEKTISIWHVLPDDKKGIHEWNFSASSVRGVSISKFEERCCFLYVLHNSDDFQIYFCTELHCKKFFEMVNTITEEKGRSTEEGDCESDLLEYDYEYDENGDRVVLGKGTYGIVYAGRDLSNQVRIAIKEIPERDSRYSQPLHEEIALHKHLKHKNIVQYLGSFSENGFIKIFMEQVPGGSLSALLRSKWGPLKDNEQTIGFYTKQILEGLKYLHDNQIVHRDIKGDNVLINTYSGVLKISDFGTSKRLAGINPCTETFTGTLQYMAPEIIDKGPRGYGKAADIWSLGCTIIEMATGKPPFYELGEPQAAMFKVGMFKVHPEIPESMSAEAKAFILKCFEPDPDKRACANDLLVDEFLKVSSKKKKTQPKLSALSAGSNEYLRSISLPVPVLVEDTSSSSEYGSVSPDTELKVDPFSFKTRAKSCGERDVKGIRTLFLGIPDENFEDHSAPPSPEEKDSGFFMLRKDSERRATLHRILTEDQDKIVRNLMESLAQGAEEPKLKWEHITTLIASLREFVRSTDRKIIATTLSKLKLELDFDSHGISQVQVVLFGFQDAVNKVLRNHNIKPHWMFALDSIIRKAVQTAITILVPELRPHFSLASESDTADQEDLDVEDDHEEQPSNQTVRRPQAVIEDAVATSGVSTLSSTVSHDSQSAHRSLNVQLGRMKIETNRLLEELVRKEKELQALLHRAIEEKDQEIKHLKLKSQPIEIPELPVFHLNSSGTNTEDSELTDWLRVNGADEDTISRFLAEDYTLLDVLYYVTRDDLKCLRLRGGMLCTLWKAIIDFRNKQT
Method: The protein kinase activity of 5 nM GST-hASK1 (Life Technologies PV4011) was assayed with 100 μM ATP and 2 μM of HTRF biotinylated STK Substrate 3 (CisBio Kit 62ST3PEJ), at ambient temperature in 25 mM Hepes, pH 7.5, 50 mM NaCl, 10 mM MgCl2, 0.02% Brij-35, 1 mM DTT, and 1% DMSO.
Briefly, 20 μL aliquots of a 1.5× stock of ASK1, STK Substrate 3 and Assay Buffer were distributed in the wells of a white 384 well Optiplate, prior to addition of 0.3 μL of a 100× compound stock in DMSO, or DMSO alone in Blank and 100% Activity Controls. After a 10 minute pre-incubation, ASK1 protein kinase activity was initiated by addition of 10 μL of 300 μM ATP. After 5 hours, the kinase activity was quenched by addition of 30 μL of CisBio Kit 62ST3PEJ components: 0.5 μM of Streptavidin XL665; and 100×STK Antibody-Eu Cryptate; in Detection Buffer containing sufficient EDTA to chelate Mg^2+ in the assay buffer. The plates were read after 65 minutes in an Envision Plate reader, with the following components and settings: Top Mirror, Lance Delfia Dual (662); UV Ex Filter, 320 nm (111); Emission Filter for donor, 615 nm (203); Emission Filter for Acceptor; 665 nm (205); and 100 μsec delay, with 665/615 ratio output. […]

[1] = target: T2, ASK1 T838 auto phosphorylation (Homo sapiens, UniProt Q99683); test: ASK1 (AUTO PHOS T838) assay in HEK-293T cells, MSD format; type: cell-based; details: HEK-293T cells transfected with ASK1-V5, 1 hr compound incubation; read-out: IC50
T2 construct: transfected with 9 μg of ASK1-V5 tagged full length plasmid; expressed in transfected cells; host or cells: HEK-293T
T2 sequence (Q99683 1-1374): T1 sequence (Q99683 1-1374)
Method: ASK1 T838 auto phosphorylation was measured in HEK-293T cells using MSD assay format. HEK 293T cells were seeded in 15 cm plates at a density of 18 million cells and 20 mL DMEM with 10% FBS, Pen/Strep media. The plates were incubated at 37° C. overnight. Media on plates was changed to OPTI-MEM, serum free media and cells were transfected with 9 μg of ASK1-V5 tagged full length plasmid using Lipofectamine 2000 (Invitrogen) and the plates were incubated at 37° C. overnight. Cells were trypsinized, counted on Nexcellometer and plated into 96 well tissue culture plates with 100,000 cells/well and 200 μL media. Cells were incubated for 4 hr at 37° C. then ASK1 compounds were added using a HP 300e. Compounds were tested at 20 μM with 3 fold, 10 point dilution points then incubated for 1 hr at 37° C. A lysis buffer (Cell Signaling) was prepared with protease and phosphatase inhibitor and maintained at 4° C. until use. Media from cells was discarded and 120 μL of cold lysis buffer was added to the cells, the plate was shaken 4° C. for 1 hr. Lysate was mixed using Apricot liquid handler; aspirating up and down 16 times at high speed using 50 μL volume. 50 μL of cell lysates were transferred to a pre-coated MSD plates containing mouse anti-V5 antibody (1:500 dilution) and washed 3× with MSD wash buffer (TBST) and blocked with a 3% BSA solution. Plates were then incubated on a plate shaker overnight at 4° C. Plates were washed 3× with MSD wash buffer and 50 μL of rabbit anti-pASK1 T838 antibody was added to the wells and incubated for 2 hr at room temperature on a plate shaker. Plates were then washed and 50 μL of goat anti-rabbit sulfa-tag (1:500 dilution) was added to wells, and incubated for 1 hr at room temperature on a plate shaker. Plates were washed 3× and 150 μL of 2×MSD Read buffer was added to wells. Plates were immediately read on a MSD Instrument Reader where chemoluminecense signal was measured. Data was analyzed using Graph Pad or Genedata, the data was normalized and plotted, % activity versus log of compound concentration. The IC50 values were obtained from a 4 parameter fit.

[2] = In vivo brain penetration (rat Kpuu); details: brain and plasma (unbound concentrations), IV infusion four hours, 1 mg/kg, steady state
Method: To evaluate the CNS penetration of the compounds described herein, several compounds were selected for in vivo rat Kpuu studies. In these experiments the compounds are administered via an IV infusion (using N,N-dimethylacetamide:ethanol:1,2-propylene glycol:water in a 1:1:3:5 ratio as the vehicle) in the carotid artery for a period of four hours (1 mg/kg, 0.1 mg/mL) to reach steady state. After this time the plasma and brain concentration levels are quantified, and the values are adjusted by the measured protein binding in plasma and brain homogenate to calculate the K puu (see Di, L.; Kerns, E. H. Blood-Brain Barrier in Drug Discovery (Wiley)) according to the equation below. […]
Plasma and brain protein binding values were generated via the Rapid Equilibrium Dialysis method. […] At the conclusion of incubation samples were taken from both matrix and buffered compartments, matrix-matched using blank buffer and matrix, extracted with acetonitrile, diluted with water, and analyzed utilizing an Agilent RapidFire 365 high-throughput LC coupled with MS/MS detection via an AB Sciex 5500. Free fractions (fu) were then calculated by comparing internal standard/analyte peak-area ratios of matrix and buffered compartments.
Total drug concentration in plasma and brain tissue was measured via well-established bioanalytical extraction (protein precipitation) and detection methods (LC-MS/MS). […]

MDR1 = target: T3, MDR1 (Homo sapiens, UniProt P08183); test: MDR1-MDCK assay; type: in vitro ADME; details: read-out: in vitro ER (efflux ratio)
T3 construct: host or cells: MDCK
Method: To predict the CNS penetration of the compounds described herein, several compounds were selected for an in vitro MDR1-MDCK assay. These experiments are conducted using human MDR1 transfected MDCK cells (Absorption Systems, Exton, PA) and the compounds are tested at 1 μM concentration prepared in transport buffer (Hank's balanced salt solution with HEPES) and following the steps below: • 1. MDR1-MDCK cell are cultured for 7 days in 96 well transwell insert plates (Corning). Insert plates are washed before the assay and TEER (trans epithelial electric resistance) is measured. • 2. These plates are loaded with test compound solution 85 μL for A-B transport and 260 μL for B-A transport in the respective donor compartment. The volume of receiver buffer (Transport buffer supplemented with 1% BSA) in the respective receiver compartment is 250 μL and 75 μL. • 3. 10 μL samples is taken from donor compartment (T=0 timepoint) • 4. Assay plates are incubated for 120 minutes. • 5. At 120 minutes (T=120 timepoint) samples from respective donor (10 μL) and receiver (50 μL) compartments is taken. • 6. After addition of 40 μL transport buffer with BSA to donor samples, crash solution (Acetonitrile with internal standard, 110 μL) is added to all samples. • 7. […] Samples are analyzed using LC-MS/MS coupled with high throughput injection system. • 9. […]

ASK1/MAP3K5 = target: T4, ASK1/MAP3K5 (Homo sapiens, UniProt Q99683); test: ASK1/MAP3K5 assay by Reaction Biology Corp. (33P-ATP filter-binding); type: biochemical; details: 20 μM MBP, 100 μM ATP
T4 construct: purchased Reaction Biology Corp. (Malvern, PA)
T4 sequence (Q99683 1-1374): T1 sequence (Q99683 1-1374)
Method: Alternatively, the protein kinase inhibitory activity of the compounds described herein were tested using the ASK1/MAP3K5 assay by Reaction Biology Corp. (Malvern, PA). The assay procedure follows (and is also available on the Reaction Biology Corp. website). • Base Reaction Buffer: 20 mM Hepes (pH 7.5), 10 mM MgCl2, 1 mM EGTA, 0.02% Brij35, 0.02 mg/mL BSA, 0.1 mM Na3VO4, 2 mM DTT, 1% DMSO; • Substrate: 20 μM of myelin basic protein (MBP) and 100 μM ATP; • Protein kinase: ASK1/MAP3K5. Reaction Procedure: • 1. Prepare indicated substrate in freshly prepared Base Reaction Buffer. • 2. Deliver any required cofactors to the substrate solution. • 3. Deliver indicated kinase into the substrate solution and gently mix. • 4. Deliver compounds in DMSO into the kinase reaction mixture by Acoustic; technology (Echo550; nanoliter range), incubate for 20 minutes at room temperature. • 5. Deliver ^33P-ATP (specific activity 10 μCi/μL) into the reaction mixture to initiate the reaction. • 6. Incubate kinase reaction for 2 hours at room temperature. • 7. Reactions are spotted onto P81 ion exchange paper. • 8. Detect kinase activity by filter-binding method.

T3 sequence (P08183 whole entry): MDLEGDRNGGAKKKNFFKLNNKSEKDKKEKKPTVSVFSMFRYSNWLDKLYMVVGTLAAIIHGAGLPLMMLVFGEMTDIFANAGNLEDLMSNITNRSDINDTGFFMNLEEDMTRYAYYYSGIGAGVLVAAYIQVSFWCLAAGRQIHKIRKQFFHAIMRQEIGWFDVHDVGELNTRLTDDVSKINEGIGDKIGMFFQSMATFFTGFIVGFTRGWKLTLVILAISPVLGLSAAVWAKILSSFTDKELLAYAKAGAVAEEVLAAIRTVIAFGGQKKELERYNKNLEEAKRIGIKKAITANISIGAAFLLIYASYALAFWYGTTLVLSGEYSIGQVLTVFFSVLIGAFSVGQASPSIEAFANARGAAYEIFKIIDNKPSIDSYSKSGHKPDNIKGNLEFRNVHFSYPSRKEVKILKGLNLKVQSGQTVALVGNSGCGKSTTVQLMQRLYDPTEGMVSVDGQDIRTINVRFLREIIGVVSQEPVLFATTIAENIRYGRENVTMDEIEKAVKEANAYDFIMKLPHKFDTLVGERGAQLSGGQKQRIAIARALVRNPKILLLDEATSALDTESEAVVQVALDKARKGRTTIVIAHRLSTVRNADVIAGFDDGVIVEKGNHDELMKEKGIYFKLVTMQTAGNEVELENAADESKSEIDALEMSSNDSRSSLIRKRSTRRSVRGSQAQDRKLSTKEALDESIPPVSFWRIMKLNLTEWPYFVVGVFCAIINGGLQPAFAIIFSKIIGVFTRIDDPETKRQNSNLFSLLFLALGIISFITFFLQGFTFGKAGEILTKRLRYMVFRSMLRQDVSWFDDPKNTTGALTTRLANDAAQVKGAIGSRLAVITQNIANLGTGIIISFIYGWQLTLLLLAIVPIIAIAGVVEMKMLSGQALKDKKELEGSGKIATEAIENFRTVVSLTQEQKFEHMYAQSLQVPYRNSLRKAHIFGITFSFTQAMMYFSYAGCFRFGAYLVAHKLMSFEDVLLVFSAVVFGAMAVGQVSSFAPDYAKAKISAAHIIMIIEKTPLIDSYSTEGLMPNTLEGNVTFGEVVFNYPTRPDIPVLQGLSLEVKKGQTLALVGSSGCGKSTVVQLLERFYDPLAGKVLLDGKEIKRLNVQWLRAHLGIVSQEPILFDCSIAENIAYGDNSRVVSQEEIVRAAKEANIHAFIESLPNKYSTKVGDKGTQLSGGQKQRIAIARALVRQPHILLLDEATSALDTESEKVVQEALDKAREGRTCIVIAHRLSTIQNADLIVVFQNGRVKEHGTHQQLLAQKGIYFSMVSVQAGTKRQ

IC50 (GST-hASK1)	IC50 [1]	Kp uu at 4 h [2]	efflux ratio at 120 min, 1 μM (MDR1)	IC50 (ASK1/MAP3K5)	SMILES
< 100 nM	≤ 1000 nM				COc1ncccc1C(=O)Nc1cccc(-c2nncn2C(C)C)n1 [Compound 1, N-(6-(4-Isopropyl-4H-1,2,4-triazol-3-yl)pyridin-2-yl)-2-methoxynicotinamide]
	≤ 1000 nM	0.41	< 3	≤ 100 nM	COc1ncccc1C(=O)Nc1cccc(-c2nncn2C2(C(F)(F)F)CC2)n1 [Compound 16, 2-Methoxy-N-(6-(4-(1-(trifluoromethyl)cyclopropyl)-4H-1,2,4-triazol-3-yl)pyridin-2-yl)nicotinamide]
